Data taken from patent publication US20240270821A1, “GIP/GLP1/GCG TRI-RECEPTOR AGONISTS AND USES THEREOF” (priority 2023, published 2024).
Starred links: 1 amine or outer side, 2 acyl side, 3 side chain; linkers in the order of their positions; H or OH if unused. Non-standard residues stand in square brackets, D forms with d. Residues, ends and D or L forms follow the SMILES beside them. Groups on a side chain read outwards from the residue. *: point of attachment. C18 diacid = O=C(O)CCCCCCCCCCCCCCCCC(=O)*; αMePhe(2-F) = C[C@](N)(Cc1ccccc1F)C(=O)O; γGlu = O=C(O)[C@H](CCC(=O)[*:2])N[*:1]; αMeY = C[C@](N)(Cc1ccc(O)cc1)C(=O)O; 4Pal = N[C@@H](Cc1ccncc1)C(=O)O; αMeL = CC(C)C[C@](C)(N)C(=O)O; αMeS = C[C@](N)(CO)C(=O)O; Orn = NCCC[C@H](N)C(=O)O; AEEA = NCCOCCOCC(=O)O; Aib = CC(C)(N)C(=O)O

What was measured:
Format in all cases: cell-based
hGIPR [1] = molecular target: T1, hGIPR (Homo sapiens, UniProt P48546); experiment: Functional cAMP activity in the presence of 1% HSA; details: read-out: cAMP Rel EC50, hGIPR
T1 sequence (P48546 22-466): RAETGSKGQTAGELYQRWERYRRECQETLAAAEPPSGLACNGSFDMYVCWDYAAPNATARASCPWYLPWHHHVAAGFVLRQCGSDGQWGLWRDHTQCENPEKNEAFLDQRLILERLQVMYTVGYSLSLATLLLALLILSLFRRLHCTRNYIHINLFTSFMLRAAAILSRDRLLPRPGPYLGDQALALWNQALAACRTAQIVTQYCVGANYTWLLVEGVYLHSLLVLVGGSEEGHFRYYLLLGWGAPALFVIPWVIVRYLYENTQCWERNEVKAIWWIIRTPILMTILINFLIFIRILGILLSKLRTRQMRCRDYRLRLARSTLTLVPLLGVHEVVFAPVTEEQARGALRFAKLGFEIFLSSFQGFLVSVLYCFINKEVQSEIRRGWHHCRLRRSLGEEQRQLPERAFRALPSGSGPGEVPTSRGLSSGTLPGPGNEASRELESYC

hGLP-1R [2] = molecular target: T2, hGLP-1R (Homo sapiens, UniProt P43220); experiment: Functional cAMP activity in the presence of 1% HSA; details: read-out: cAMP Rel EC50, hGLP-1R
T2 sequence (P43220 24-463): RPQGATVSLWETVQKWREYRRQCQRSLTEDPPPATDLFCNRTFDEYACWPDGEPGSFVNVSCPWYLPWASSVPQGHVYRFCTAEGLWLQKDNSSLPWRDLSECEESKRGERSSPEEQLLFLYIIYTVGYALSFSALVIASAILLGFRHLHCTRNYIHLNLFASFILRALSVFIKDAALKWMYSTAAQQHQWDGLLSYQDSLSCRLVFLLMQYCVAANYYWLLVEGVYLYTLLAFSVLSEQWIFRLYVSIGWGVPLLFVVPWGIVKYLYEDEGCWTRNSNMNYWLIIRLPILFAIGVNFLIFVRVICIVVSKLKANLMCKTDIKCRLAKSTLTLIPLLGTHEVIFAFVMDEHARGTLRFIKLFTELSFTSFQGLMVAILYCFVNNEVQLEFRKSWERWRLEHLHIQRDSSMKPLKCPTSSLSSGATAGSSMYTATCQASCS

human GcgR = human GcgR (Homo sapiens, UniProt P47871); experiment: Functional cAMP activity in the presence of 1% HSA; details: read-out: cAMP Rel EC50, hGcgR
Sequence of human GcgR (P47871 26-477): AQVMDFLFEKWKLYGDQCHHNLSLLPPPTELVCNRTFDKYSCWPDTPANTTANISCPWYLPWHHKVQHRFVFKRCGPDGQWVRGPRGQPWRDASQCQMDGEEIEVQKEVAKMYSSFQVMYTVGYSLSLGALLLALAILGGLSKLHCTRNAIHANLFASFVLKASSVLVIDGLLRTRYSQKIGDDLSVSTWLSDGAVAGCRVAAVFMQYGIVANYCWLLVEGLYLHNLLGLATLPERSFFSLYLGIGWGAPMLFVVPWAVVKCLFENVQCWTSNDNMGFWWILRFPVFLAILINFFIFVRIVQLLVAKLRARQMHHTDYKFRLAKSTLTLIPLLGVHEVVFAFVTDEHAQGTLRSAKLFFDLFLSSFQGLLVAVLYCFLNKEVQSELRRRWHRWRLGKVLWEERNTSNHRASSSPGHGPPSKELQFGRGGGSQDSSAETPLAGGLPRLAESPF

hGIPR [3] = molecular target: T1, hGIPR; experiment: Functional cAMP activation in the presence of 0.1% casein (no HSA); details: read-out: Relative cAMP EC50, hGIPR;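 as to Relative cAMP EC50, hGIPR: intracellular cAMP rise after 30 min at 37 °C read by HTRF against a standard curve, scaled between buffer alone (0%) and top control ligand concentration (100%), four-parameter fit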;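 as to Relative cAMP EC50, hGLP-1R: intracellular cAMP rise after 30 min at 37 °C read by HTRF, normalized between buffer only (0%) and maximal control ligand (100%), four-parameter variable-slope fit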;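 as to Relative cAMP EC50, hGcgR: intracellular cAMP rise after 30 min at 37 °C, read by HTRF against a cAMP standard curve, scaled from buffer only (0%) to maximal control ligand response (100%)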
hGLP-1R [4] = molecular target: T2, hGLP-1R; experiment: as above; details: read-out: Relative cAMP EC50, hGLP-1R
hGcgR = hGcgR (Homo sapiens, UniProt P47871); experiment: as above; details: read-out: Relative cAMP EC50, hGcgR;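 also: intracellular cAMP rise after 30 min at 37 °C, read by HTRF against a cAMP standard curve, scaled from buffer only (0%) to maximal control ligand response (100%)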
Sequence of hGcgR (P47871 26-477): as above

| Structure (SMILES) | EC50 (hGIPR [1]) | EC50 (hGLP-1R [2]) | EC50 (human GcgR) | EC50 (hGIPR [3]) | EC50 (hGLP-1R [4]) | EC50 (hGcgR) |
| --- | --- | --- | --- | --- | --- | --- |
| CC[C@H](C)[C@H](NC(=O)[C@H](CCCN)NC(=O)[C@H](CC(=O)O)NC(=O)[C@H](CC(C)C)NC(=O)[C@H](CC(C)C)NC(=O)[C@@H](NC(=O)[C@H](CO)NC(=O)[C@H](Cc1ccncc1)NC(=O)[C@H](CC(=O)O)NC(=O)[C@H](CO)NC(=O)[C@@H](NC(=O)[C@](C)(Cc1ccccc1F)NC(=O)[C@@H](NC(=O)CNC(=O)[C@H](CCC(N)=O)NC(=O)C(C)(C)NC(=O)[C@@H](N)Cc1ccc(O)cc1)[C@@H](C)O)[C@@H](C)O)[C@@H](C)CC)C(=O)N[C@@H](C)C(=O)N[C@@H](CCC(N)=O)C(=O)NC(C)(C)C(=O)N[C@@H](C)C(=O)N[C@@H](Cc1ccccc1)C(=O)N[C@H](C(=O)N[C@@H](CCCCNC(=O)COCCOCCNC(=O)CC[C@H](NC(=O)CCCCCCCCCCCCCCCCC(=O)O)C(=O)O)C(=O)N[C@@H](Cc1ccc(O)cc1)C(=O)N[C@@H](CC(C)C)C(=O)N[C@@H](CCC(=O)O)C(=O)N[C@@H](CCC(=O)O)C(=O)NCC(=O)NCC(=O)N1CCC[C@H]1C(=O)N[C@@H](CO)C(=O)N[C@@H](CO)C(=O)NCC(=O)N[C@@H](C)C(=O)N1CCC[C@H]1C(=O)N1CCC[C@H]1C(=O)N1CCC[C@H]1C(=O)N[C@@H](CO)C(N)=O)[C@@H](C)CC [Example 454] (H-Y[Aib]QGT[αMePhe(2-F)]TSD[4Pal]SILLD[Orn]IAQ[Aib]AFIK([AEEA-γGlu-C18 diacid])YLEEGGPSSGAPPPS-NH2) | 4.31 nM | 135 nM | 1280 nM | 0.0154 nM | 0.821 nM | 9.11 nM |
| CC[C@H](C)[C@H](NC(=O)[C@H](CCCCN)NC(=O)[C@H](CC(=O)O)NC(=O)[C@H](CC(C)C)NC(=O)[C@](C)(CC(C)C)NC(=O)[C@@H](NC(=O)[C@H](CO)NC(=O)[C@H](Cc1ccc(O)cc1)NC(=O)[C@H](CC(=O)O)NC(=O)[C@H](CO)NC(=O)[C@@H](NC(=O)[C@](C)(Cc1ccccc1F)NC(=O)[C@@H](NC(=O)CNC(=O)[C@H](CCC(N)=O)NC(=O)C(C)(C)NC(=O)[C@@H](N)Cc1ccc(O)cc1)[C@@H](C)O)[C@@H](C)O)[C@@H](C)CC)C(=O)N[C@@H](C)C(=O)N[C@@H](CCC(N)=O)C(=O)NC(C)(C)C(=O)N[C@@H](C)C(=O)N[C@@H](Cc1ccccc1)C(=O)N[C@H](C(=O)N[C@@H](CCCCNC(=O)COCCOCCNC(=O)CC[C@H](NC(=O)CCCCCCCCCCCCCCCCC(=O)O)C(=O)O)C(=O)N[C@@H](Cc1ccc(O)cc1)C(=O)N[C@@H](CC(C)C)C(=O)N[C@@H](CCC(=O)O)C(=O)N[C@@H](CCC(=O)O)C(=O)NCC(=O)NCC(=O)N1CCC[C@H]1C(=O)N[C@@H](CO)C(=O)N[C@@H](CO)C(=O)NCC(=O)N[C@@H](C)C(=O)N1CCC[C@H]1C(=O)N1CCC[C@H]1C(=O)N1CCC[C@H]1C(=O)N[C@@H](CO)C(N)=O)[C@@H](C)CC [Example 455] (H-Y[Aib]QGT[αMePhe(2-F)]TSDYSI[αMeL]LDKIAQ[Aib]AFIK([AEEA-γGlu-C18 diacid])YLEEGGPSSGAPPPS-NH2) | 5.2 nM | 105 nM | 1200 nM | 0.0182 nM | 0.49 nM | 4.36 nM |
| CC[C@H](C)[C@H](NC(=O)[C@H](CC(C)C)NC(=O)[C@](C)(Cc1ccc(O)cc1)NC(=O)[C@@H](CCC(=O)O)NC(=O)[C@@H](NC(=O)[C@H](Cc1ccccc1)NC(=O)[C@H](CC(N)=O)NC(=O)C(C)(C)NC(=O)[C@H](CCC(N)=O)NC(=O)[C@H](C)NC(=O)[C@H](CCCCNC(=O)COCCOCCNC(=O)CC[C@H](NC(=O)CCCCCCCCCCCCCCCCC(=O)O)C(=O)O)NC(=O)[C@H](CCCN)NC(=O)[C@H](CC(=O)O)NC(=O)[C@H](CC(C)C)NC(=O)[C@](C)(CC(C)C)NC(=O)[C@@H](NC(=O)[C@](C)(CO)NC(=O)[C@H](Cc1ccncc1)NC(=O)[C@H](CC(=O)O)NC(=O)[C@H](CO)NC(=O)[C@@H](NC(=O)[C@](C)(Cc1ccccc1F)NC(=O)[C@@H](NC(=O)CNC(=O)[C@H](CCC(N)=O)NC(=O)C(C)(C)NC(=O)[C@@H](N)Cc1ccc(O)cc1)[C@@H](C)O)[C@@H](C)O)[C@@H](C)CC)[C@@H](C)CC)C(=O)N[C@@H](CCC(=O)O)C(=O)NCC(=O)NCC(=O)N1CCC[C@H]1C(=O)N[C@@H](CO)C(=O)N[C@@H](CO)C(=O)NCC(=O)N[C@@H](CCC(=O)O)C(=O)N1CCC[C@H]1C(=O)N1CCC[C@H]1C(=O)N1CCC[C@H]1C(=O)N[C@@H](CCC(=O)O)C(N)=O [Example 456] (H-Y[Aib]QGT[αMePhe(2-F)]TSD[4Pal][αMeS]I[αMeL]LD[Orn]K([AEEA-γGlu-C18 diacid])AQ[Aib]NFI[dE][αMeY]LIEGGPSSGEPPPE-NH2) | 0.993 nM | 12.5 nM | 230 nM | 0.00913 nM | 0.19 nM | 3.48 nM |
| CC[C@H](C)[C@H](NC(=O)[C@H](CC(C)C)NC(=O)[C@H](Cc1ccc(O)cc1)NC(=O)[C@@H](CCC(=O)O)NC(=O)[C@@H](NC(=O)[C@H](Cc1ccccc1)NC(=O)[C@H](CCCN)NC(=O)C(C)(C)NC(=O)[C@H](CCC(N)=O)NC(=O)[C@H](C)NC(=O)[C@H](CCCCNC(=O)COCCOCCNC(=O)CC[C@H](NC(=O)CCCCCCCCCCCCCCCCC(=O)O)C(=O)O)NC(=O)[C@H](CCCN)NC(=O)[C@H](CC(=O)O)NC(=O)[C@H](CC(C)C)NC(=O)[C@](C)(CC(C)C)NC(=O)[C@@H](NC(=O)[C@](C)(CO)NC(=O)[C@H](Cc1ccncc1)NC(=O)[C@H](CC(=O)O)NC(=O)[C@H](CO)NC(=O)[C@@H](NC(=O)[C@](C)(Cc1ccccc1F)NC(=O)[C@@H](NC(=O)CNC(=O)[C@H](CCC(N)=O)NC(=O)C(C)(C)NC(=O)[C@@H](N)Cc1ccc(O)cc1)[C@@H](C)O)[C@@H](C)O)[C@@H](C)CC)[C@@H](C)CC)C(=O)N[C@@H](CCC(=O)O)C(=O)NCC(=O)NCC(=O)N1CCC[C@H]1C(=O)N[C@@H](CO)C(=O)N[C@@H](CO)C(=O)NCC(=O)N[C@@H](CCC(=O)O)C(=O)N1CCC[C@H]1C(=O)N1CCC[C@H]1C(=O)N1CCC[C@H]1C(=O)N[C@@H](CCC(=O)O)C(N)=O [Example 458] (H-Y[Aib]QGT[αMePhe(2-F)]TSD[4Pal][αMeS]I[αMeL]LD[Orn]K([AEEA-γGlu-C18 diacid])AQ[Aib][Orn]FI[dE]YLIEGGPSSGEPPPE-NH2) | 8.07 nM | 22.7 nM | 319 nM | 0.0448 nM | 0.347 nM | 5.29 nM |
